pIC50: −log10 of the molar value.
Molecular target: Sodium/potassium-transporting ATPase (Canis familiaris)
Assay: Compound was evaluated for its ability to inhibit the specific [3H]-ouabain binding to dog kidney Na+/K+ ATPase

| Structure (SMILES) | pIC50 |
| --- | --- |
| C[C@H]1/C(=C/C(=O)OCCN(C)C)CCC2C1C(=O)C[C@H]1C(C)(C)[C@@H](O)CC[C@]21C (stereo partly drawn) [[(1R,4bR,7S,8aR)-7-Hydroxy-1,4b,8,8-tetramethyl-10-oxo-dodecahydro-phenanthren-(2E)-ylidene]-acetic acid 2-dimethylamino-ethyl ester] | 7.00 |
| C[C@]12CC[C@H](O)C[C@H]1CC[C@@H]1[C@@H]2CC[C@]2(C)[C@@H](/C=C/C=O)CC[C@]12O | 7.22 |
